The conditions of the data set: 0.03 mCi/ml, excipient 1 mg/ml in sodium acetate-acetic acid buffer pH 5.80, 25° C.

Read-outs that look alike come from different tables or passages of the source.

Protocol: After drying in an incubator at a temperature of 38° C., the radio-TLC conversion was analyzed at different time points with a radio-TLC reader (Eckert & Ziegler AR-2000) set at High Voltage=1000 (to ensure alpha detection) until the ratio between labeled product and the free Ac225 ion no longer change (typically after 6-8 hours of TLC separation to ensure equilibrium between Ac225 and daughter nuclides).
The formulations were buffered with sodium acetate-acetic acid 0.4 M solution to pH 5.80 (±0.10). […] Sodium L-Ascorbate/L-Ascorbic acid buffer was adjusted to pH 5.80 (±0.10). Water for Injection (WFI) with the same dilution without any excipient is used as the control formulation. The mixture was kept at room temperature (25° C.).

As for `N[C@@H](CCC(=O)N[C@@H](CS)C(=O)NCC(=O)O)C(=O)O` [L-Glutathione], the “Percentage of ^225Ac present in [^225Ac]Ac-DOTA-TATE” value (“Percentage of ^225Ac present” for short) is, setting by setting: (24 hours after mixing) 91.18%; (48 hours after mixing) 85.56%.
Turning to `O=S([O-])O.[Na+]` [Sodium Bisulfite], the “Percentage of ^225Ac present” value (24 hours after mixing) turned out to be 0%.
As for `CC(=O)N[C@@H](CS)C(=O)O` [N-Acetyl-L-Cysteine], the “Percentage of ^225Ac present” value is, setting by setting: (24 hours after mixing) 91.19%; (48 hours after mixing) 87.41%.
Turning to `NCCCC[C@H](N)C(=O)O` [L-Lysine], the “Percentage of ^225Ac present” value (24 hours after mixing) was 95.45% and the “Percentage of ^225Ac present” value (48 hours after mixing) was 89.52%.
For `O=C(O)CCCC[C@@H]1CCSS1` (racemic) [Lipoic Acid], the “Percentage of ^225Ac present” value came to 92.97% (24 hours after mixing) and 87.93% (48 hours after mixing).
For `CCO` [10% EtOH, EtOH], the “Percentage of ^225Ac present” value reads like this: (24 hours after mixing) 96.35%; (48 hours after mixing) 92.16%.
The matching figures for `O=C(O)CC(O)(CC(=O)O)C(=O)O` [Citric Acid]: 90.20% and 82.18%.
Consider `Oc1ccccc1` [Phenol], for which the “Percentage of ^225Ac present” value (48 hours after mixing) is 87.88%.
For `CSCC[C@H](N)C(=O)O` [L-Methionine], the “Percentage of ^225Ac present” value is 93.39% (24 hours after mixing) and 89.58% (48 hours after mixing).
The corresponding values for `O=C(O)CN(CCN(CC(=O)O)CC(=O)O)CCN(CC(=O)O)CC(=O)O` [DTPA, Diethylenetriaminepentaacetic acid] are 95.77% and 91.38%.
The corresponding values for `O=C(O)c1ccccc1O` [Salicylic Acid] are 93.08% and 87.65%.
The matching figures for `N[C@H](CS)C(=O)O` [D-Cysteine]: 93.45% and 87.66%.
Regarding `O=C1O[C@H]([C@@H](O)CO)C([O-])=C1O.[Na+]` [Sodium Ascorbate, pH 5.8, Sodium Ascorbate], the “Percentage of ^225Ac present” value (48 hours after mixing) came out at 92.21%.

The values above are taken from patent publication US11819556B2, “Stabilized compositions of radionuclides and uses thereof” (RayzeBio, Inc., priority 2021, dated 2023).
